The values below come from patent US20140005164A1, “WNT PATHWAY ANTAGONISTS” (Siena Biotech S.p.A., priority 2011, published 2014).

One assay has as its system Wnt/β-catenin pathway. Description: Wnt reporter assay (TCF-Luciferase, Firefly) in DBTRG-05MG cells. The assay is classed as cell-based. Conditions: Homo sapiens, 24 h, read-out: IC50 value in the reporter assay. As to the method:
Three copies of a 4×TCF responsive elements were cloned into the pcDNA3.1/Zeo(+) vector (Invitrogen) after deletion of the constitutive CMV promoter and the insertion of the Firefly Luciferase from Promega (phFL-TK) to measure the activity of the Wnt/β-catenin pathway. The resulting plasmid was sequenced for quality control.
Cells were grown in 20 μg/ml Zeocin and 20 μg/ml Zeocin plus 30 μg/ml Hygromicin respectively. The cells were plated at a density of 6500 cells/well in poly-D-lysine pre-treated 96 well-plates.
36 hours after plating cells were incubated with 8-points dilutions compound (0.6% DMSO (v/v)). Each compound was tested in triplicate in single plate. Luciferase detection was done with Dual-Luciferase Reporter Assay System (Promega). 24 hours after compound addition, media was removed and 30 μl of 1× lysis buffer was added to each well for 30 minutes. To each well 45 μl of Dual-Glo Luciferase reagent (Promega) were added and after 1 second delay Luciferase was detected for 1 second using Mithras LB940 instrument. After Firefly luciferase quantification 45 μl of Dual Stop & Glo reagent (Promega) were added to each well and […] Renilla was detected using the same parameters described before.
Data were expressed as % of control for Firefly and Renilla luciferase independently; values were calculated using XLFit version 4.2, with a four parameters sigmoid function (XLFit model 205).
A general note: A reporter such as luciferase makes a cellular process visible.
The IC50 is the concentration needed to halve the response being measured. In the case of `COc1cccc(COc2ccc3c(n2)n(C[C@H]2CC[C@H](C(=O)Nc4ccncc4)CC2)c(=O)n3C)c1` [Example 10, Trans-4-[5-(3-Methoxy-benzyloxy)-1-methyl-2-oxo-1,2-dihydro-imidazo[4,5-b]pyridin-3-ylmethyl]-cyclohexane carboxylic acid pyridin-4-ylamide], the half-inhibitory concentration (IC50) was in the range of 35 to 23000 nM.

Still in this assay, the particulars now being: Homo sapiens, TCF-Luciferase (Firefly) read out, 24 hours after compound addition, range given with mixed units nM and μM, read-out: IC50 value in the reporter assay.
On to `COc1cc2c(cc1Cl)n(C[C@H]1CC[C@H](C(=O)N3CCN(c4ncccn4)CC3)CC1)c(=O)n2C` [Example 46], for which the IC50 lay in the range of 35 to 23000 nM.

As to `Cn1c(=O)n(C[C@H]2CC[C@H](C(=O)Nc3ccncc3)CC2)c2nc(OCc3ccccn3)ccc21` [Example 156], the IC50 is 35 to 23000 nM. In the case of `COc1ccc2c(c1)n(C[C@H]1CC[C@H](C(=O)N3CCNC(=O)C3)CC1)c(=O)n2C` [Example 105], the concentration for half-maximal inhibition (IC50) is 35 to 23000 nM. With `Cn1c(=O)n(C[C@H]2CC[C@H](C(=O)Nc3ccncc3)CC2)c2nc(C3CC3)ccc21` [Example 170], the IC50 was 35 to 23000 nM.

For the compound `COc1cc(NC(=O)[C@H]2CC[C@H](Cn3c(=O)n(C)c4c(Cl)cccc43)CC2)ccn1` [Example 58], the half-inhibitory concentration (IC50) was 35 to 23000 nM. The same measure, in the same setting: the figure for `COc1ccc2c(c1)n(C[C@H]1CC[C@H](C(=O)N3CCC(F)(F)C3)CC1)c(=O)n2C` [Example 44] is 35 to 23000 nM; for `Cn1c(=O)n(C[C@H]2CC[C@H](C(=O)Nc3ccncc3)CC2)c2cc(OCCC=C(F)F)ccc21` [Example 138] it is 35 to 23000 nM. Still for that read-out and setting: the figure for `Cn1c(=O)n(C[C@H]2CC[C@H](C(=O)Nc3ccnnc3)CC2)c2[nH]c(=O)ccc21` [Example 9, Trans-4-(1-Methyl-2,5-dioxo-1,2,4,5-tetrahydro-imidazo[4,5-b]pyridin-3-ylmethyl)-cyclohexanecarboxylic acid pyridazin-4-ylamide] is 35 to 23000 nM; for `COc1ccc2c(c1)n(C[C@H]1CC[C@H](c3nnc(-c4ccc(OC)c(F)c4)o3)CC1)c(=O)n2C` [Example 112] it is 35 to 23000 nM. In the case of `COc1ccc2c(c1)n(C[C@H]1CC[C@H](C(=O)Nc3cccc4oc(C5CC5)nc34)CC1)c(=O)n2C` [Example 67], the IC50 lay within 35 to 23000 nM. On the same count and under the same terms, to `Cn1c(=O)n(C[C@H]2CC[C@H](C(=O)Nc3ccnc(N4CCOCC4)c3)CC2)c2cccc(Cl)c21` [Example 43] belongs 35 to 23000 nM; to `COc1ccc2c(c1)n(C[C@H]1CC[C@H](c3nnc(-c4cc(C)on4)o3)CC1)c(=O)n2C` [Example 131], 35 to 23000 nM. In the case of `COc1ccc2c(c1)n(C[C@H]1CC[C@H](C(=O)N3CCN(c4ccc(C(F)(F)F)nc4)CC3)CC1)c(=O)n2C` [Example 90], the IC50 is 35 to 23000 nM. The same measure, in the same setting: the figure for `COc1ccc2c(c1)n(C[C@H]1CC[C@H](C(=O)N3CCC(c4noc(C)n4)CC3)CC1)c(=O)n2C` [Example 84] is 35 to 23000 nM; for `COc1ccc2c(c1)n(C[C@H]1CC[C@H](C(=O)N3CC4CCC(C3)O4)CC1)c(=O)n2C` [Example 63] it is 35 to 23000 nM.

For the compound `COc1ccc2c(c1)n(C[C@H]1CC[C@H](c3nnc(-c4cn(C)nc4C(F)(F)F)o3)CC1)c(=O)n2C` [Example 11, 5-Methoxy-1-methyl-3-{trans 4-[5-(1-methyl-3-trifluoromethyl-1H-pyrazol-4-yl)-[1,3,4]oxadiazol-2-yl]-cyclohexylmethyl}-1,3-dihydro-benzoimidazol-2-one], the IC50 fell in the range of 35 to 23000 nM. On to `COc1ccc2c(c1)n(C[C@H]1CC[C@H](c3nnc(-c4c(C)nn(C)c4C)o3)CC1)c(=O)n2C` [Example 148], for which the 50% inhibitory concentration (IC50) is 35 to 23000 nM. As to `Cn1c(=O)n(C[C@H]2CC[C@H](C(=O)Nc3ccncc3)CC2)c2ncccc21` [Example 142], the half-maximal inhibitory concentration (IC50) is 35 to 23000 nM. Same read-out and setting: the figure for `COc1ccc2c(c1)n(C[C@H]1CC[C@H](C(=O)Nc3ccnc(C)c3)CC1)c(=O)n2C` [Example 33] is 35 to 23000 nM; for `COCCOc1cc(NC(=O)[C@H]2CC[C@H](Cn3c(=O)n(C)c4c(Cl)cccc43)CC2)ccn1` [Example 42] it is 35 to 23000 nM; for `COCCOc1ccc2c(c1)n(C[C@H]1CC[C@H](c3nnc(-c4cccnn4)o3)CC1)c(=O)n2C` [Example 163] it is 35 to 23000 nM. On the same count and under the same terms, to `Cn1c(=O)n(C[C@H]2CC[C@H](C(=O)Nc3ccncc3)CC2)c2cc(OCCCC#N)ccc21` [Example 136] belongs 35 to 23000 nM; to `Cn1c(=O)n(C[C@H]2CC[C@H](C(=O)Nc3ccncc3)CC2)c2cc(OC(F)F)ccc21` [Example 165], 35 to 23000 nM. On the same count and under the same terms, to `Cn1c(=O)n(C[C@H]2CC[C@H](C(=O)N3CCN(c4ccncc4)CC3)CC2)c2cc(C#N)ccc21` [Example 123] belongs 35 to 23000 nM; to `COc1ccc2c(c1)n(C[C@H]1CC[C@H](C(=O)Nc3ccncc3F)CC1)c(=O)n2C` [Example 38], 35 to 23000 nM; to `COc1ccc2c(c1)n(C[C@H]1CC[C@H](C(=O)Nc3ccnc(Cl)c3)CC1)c(=O)n2C` [Example 32], 35 to 23000 nM.

`Cn1c(=O)n(C[C@H]2CC[C@H](C(=O)Nc3ccncc3)CC2)c2nc(OCCN3CCOCC3)ccc21` [Example 158]: the IC50 fell in the range of 35 to 23000 nM. Same read-out and setting: the figure for `COc1ccc2c(c1)n(C[C@H]1CC[C@H](c3nnc(-c4ccn(C)n4)o3)CC1)c(=O)n2C` [Example 110] is 35 to 23000 nM; for `Cn1c(=O)n(C[C@H]2CC[C@H](C(=O)N3CCN(c4nccs4)CC3)CC2)c2cc(C(F)(F)F)ccc21` [Example 24] it is 35 to 23000 nM; for `COc1cc2c(cc1F)n(C)c(=O)n2C[C@H]1CC[C@H](C(=O)N2CC=C(c3cnn(C)c3)CC2)CC1` [Example 143] it is 35 to 23000 nM.

Take `COc1ccc2c(n1)n(C[C@H]1CC[C@H](C(=O)N3CCN(c4ncccn4)CC3)CC1)c(=O)n2C` [Example 26]: the IC50 fell in the range of 35 to 23000 nM. Still for that read-out and setting: the figure for `COc1ccc2c(c1)n(C[C@H]1CC[C@H](C(=O)N3CCN(c4cc(C)no4)CC3)CC1)c(=O)n2C` [Example 144] is 35 to 23000 nM; for `COC/C=C/c1ccc2c(c1)n(C[C@H]1CC[C@H](C(=O)Nc3ccncc3)CC1)c(=O)n2C` [Example 113] it is 35 to 23000 nM. On the same count and under the same terms, the figure for `COCCOc1ccc2c(c1)n(C[C@H]1CC[C@H](C(=O)N3CC=C(c4cnn(C)c4)CC3)CC1)c(=O)n2C` [Example 130] is 35 to 23000 nM; for `COc1ccc2c(c1)n(C[C@H]1CC[C@H](C(=O)N3CCN(C(=O)[C@@H]4CCC(=O)O4)CC3)CC1)c(=O)n2C` [Example 74] it is 35 to 23000 nM; for `COc1ccc2c(c1)n(C[C@H]1CC[C@H](C(=O)N3CCC(c4ncccn4)CC3)CC1)c(=O)n2C` [Example 82] it is 35 to 23000 nM. Still for that read-out and setting: to `Cn1c(=O)n(C[C@H]2CC[C@H](C(=O)Nc3ccnc(N4CCOCC4)c3)CC2)c2cc(Cl)ccc21` [Example 41] belongs 35 to 23000 nM; to `Cc1cnccc1NC(=O)[C@H]1CC[C@H](Cn2c(=O)n(C)c3ccc(C4CC4)cc32)CC1` [Example 70], 35 to 23000 nM.

For the compound `Cn1c(=O)n(C[C@H]2CC[C@H](C(=O)Nc3ccncc3)CC2)c2nc(OCC3CCCCO3)ccc21` (stereo partly drawn) [Example 168], the concentration for half-maximal inhibition (IC50) was 35 to 23000 nM. Still for that read-out and setting: to `CCOc1ccc2c(c1)n(C[C@H]1CC[C@H](C(=O)Nc3ccncc3)CC1)c(=O)n2C` [Example 17] belongs 35 to 23000 nM; to `Cn1cc(C2=CCN(C(=O)[C@H]3CC[C@H](Cn4c(=O)n(C)c5ccc(C#N)cc54)CC3)CC2)cn1` [Example 154], 35 to 23000 nM; to `Cn1c(=O)n(C[C@H]2CC[C@H](C(=O)Nc3ccncc3)CC2)c2cc(OCc3ccncc3)ccc21` [Example 151], 35 to 23000 nM. Still for that read-out and setting: the figure for `COc1ccc2c(c1)n(C[C@H]1CC[C@H](C(=O)N3CCN(c4cccc(OC)n4)CC3)CC1)c(=O)n2C` [Example 65] is 35 to 23000 nM. Still for that read-out and setting: to `Cn1c(=O)n(C[C@H]2CC[C@H](C(=O)N3CCN(c4ncccn4)CC3)CC2)c2ccc(Cl)cc21` [Example 55] belongs 35 to 23000 nM; to `COc1ccc2c(c1)n(C[C@H]1CC[C@H](C(=O)Nc3cccnc3)CC1)c(=O)n2C` [Example 37], 35 to 23000 nM; to `COc1ccc2c(c1)n(C[C@H]1CC[C@H](C(=O)Nc3nc4ccccc4s3)CC1)c(=O)n2C` [Example 187], 35 to 23000 nM. In the case of `COCCNc1ccc2c(n1)n(C[C@H]1CC[C@H](C(=O)Nc3ccncc3)CC1)c(=O)n2C` [Example 125], the half-maximal inhibitory concentration (IC50) fell in the range of 35 to 23000 nM. The same measure, in the same setting: to `CONC(=O)C1CCN(C(=O)[C@H]2CC[C@H](Cn3c(=O)n(C)c4ccc(OC)cc43)CC2)CC1` [Example 85] belongs 35 to 23000 nM. On the same count and under the same terms, the figure for `COc1ccc2c(c1)n(C[C@H]1CC[C@H](c3nnc(-c4cccc(OC(F)F)c4)o3)CC1)c(=O)n2C` [Example 118] is 35 to 23000 nM; for `COc1ccc2c(c1)n(C[C@H]1CC[C@H](c3c[nH]c(NC(C)=O)n3)CC1)c(=O)n2C` [Example 19, N-{4-[trans-4-(6-Methoxy-3-methyl-2-oxo-2,3-dihydro-benzoimidazol-1-ylmethyl)-cyclohexyl]-1H-imidazol-2-yl}-acetamide] it is 35 to 23000 nM; for `Cn1c(=O)n(C[C@H]2CC[C@H](C(=O)N3CCN(c4nccs4)CC3)CC2)c2cc(Cl)ccc21` [Example 53] it is 35 to 23000 nM. Same read-out and setting: the figure for `COc1ccc2c(c1)n(C[C@H]1CC[C@H](C(=O)Nc3ccncn3)CC1)c(=O)n2C` [Example 104] is 35 to 23000 nM; for `COc1ccc2c(c1)n(C[C@H]1CC[C@H](C(=O)N3CCC(C(C)=O)CC3)CC1)c(=O)n2C` [Example 81] it is 35 to 23000 nM.
